For assay [1], the system named is Klebsiella pneumoniae ATCC-BAA-1705. In words: Drug efficacy in mice (mouse pneumonia model). To be noted: CD-1 mice, read at 24 h, FIG. 2. It is filed as in vivo. On the procedure: 21 CD-1 mice were divided into 7 cages, 3 mice per cage, and were injected intraperitoneally with the immunosuppressant cyclophosphamide (150 mpk) on the 4th day.
On the first day, 7 cages of mice were injected intraperitoneally again with the immunosuppressant cyclophosphamide (100 mpk). The strain Kpn ATCC-BAA-1705 (Klebsiella pneumoniae ATCC-BAA-1705) was recovered on a MHA plate. The recovered colonies were picked and dissolved in saline to prepare Kpn ATCC-BAA-1705 bacterial solution with a concentration of 4.00E+08 CFU/mL for later use in mouse lung infection. The amount of bacterial solution infected in the lung of experimental mice was 50 μL/mouse, that is, the inoculation amount was 2.00E+07 CFU/mouse. At 2 h and 24 h infection, the lung tissue of the mice in control group was taken and placed in 5 mL saline, homogenized, and dotted on a plate with gradient dilution.
The specific administration of mice was as follows: • (1) 2 h after infection: At the end of 2 h after infection, the lung tissue of the mice in the first cage was taken and placed in 5 mL saline, homogenized, and dotted on a plate with gradient dilution, two duplications for each mouse. The amount of bacteria loaded in the lung tissue of the mouse was counted. Mice in the third and fourth cages were injected respectively with 30 mpk and 10 mpk compound Plazomicin subcutaneously, mice in the fifth and sixth cages were injected respectively with 30 mpk and 10 mpk compound subcutaneously, and mice in the seventh cage were injected with 100 mpk meropenem subcutaneously. • (2) 10 h after infection: Mice in the third and fourth cages were injected respectively with 30 mpk and 10 mpk plazomicin subcutaneously, mice in the fifth and sixth cages were injected respectively with 30 mpk and 10 mpk compound 1 subcutaneously, and mice in the seventh cage were injected with 100 mpk meropenem subcutaneously. At the end of 24 h infection, the lung tissue of the mice in the second to seventh cages was taken and placed in 5 mL saline, homogenized, and dotted on a plate with gradient dilution, two duplications for each mouse. The amount of bacteria carried in the lung tissue of the mouse was counted, and the experimental results were summarized and shown in FIG. 2.

For assay [2], the system named is E. coli ATCC-25922 (Enterobacteria ATCC-25922). In words: Drug efficacy in mice (mouse thigh muscle model). Format: in vivo. The conditions noted are these: CD-1 mice, 30 mpk subcutaneously 2 h and 10 h after infection, read at 24 h; FIG. 1. On the procedure: 12 female CD-1 mice were divided into 4 cages, 3 mice per cage, and were injected intraperitoneally with the immunosuppressant cyclophosphamide (150 mpk).
24 hours later, 4 cages of mice were injected intraperitoneally again with the immunosuppressant cyclophosphamide (100 mpk). The strain E. coli ATCC-25922 (Enterobacteria ATCC-25922) was recovered on a MHA plate. The recovered colonies were picked and dissolved in saline to prepare E. coli ATCC-25922 bacterial solution with a concentration of 1.00E+07 CFU/mL for later use in mouse thigh muscle infection. The amount of bacterial solution injected into the thigh muscle of experimental mice was […], that is, the inoculation amount was 1.00E+06 CFU/mouse. […]
The specific administration of mice was as follows: • (1) 2 h after infection: At the end of 2 h infection, the thigh muscle tissue of the mice in the first cage was taken and placed in 10 mL saline, homogenized, and dotted on a plate with gradient dilution, two duplications for each mouse. The amount of bacteria loaded in the thigh muscle tissue of the mouse was counted. […] The amount of bacteria loaded in the thigh muscle tissue of the mouse was counted, and the experimental results were summarized and shown in FIG. 1.

The subject of assay [3] is K. pneumoniae ATCC BAA-1705. In words: Antibacterial effect (MIC), micro-liquid dilution method (CLSI). The conditions noted are these: Klebsiella pneumoniae, ATCCBAA1705. It is filed as cell-based. The protocol:
(§1) Three strains Enterobacteriaceae E. coli ATCC 25922, E. coli ATCC BAA-2523, K. pneumonia ATCC BAA-1705 were used to determine the Minimum Inhibitory Concentration (MIC) of each compound by the micro-liquid dilution method according to the requirements of the Institute of Clinical and Laboratory Standard (CLSI). 2-fold series diluted compounds (with a final concentration range […]) were added to a round bottom 96-well plate (Catalog #3788, Corning). A single clone of fresh bacteria on the plate of Mueller Hinton II Agar (MHA, Cat. No. 211438, BD BBL™) after overnight culture was picked and suspended in sterile saline to adjust the concentration to 1×10^8 CFU/mL, and then diluted to 5×10^5 CFU/mL by Cation-Adjusted Mueller Hinton II Broth (MHB, Catalog #212332, BD BBL™), 100 μL of which was added to the round bottom 96-well plate containing the drug. The plate was inverted and incubated at 37° C. for 20-24 hours, and the MIC value was read. The lowest drug concentration that inhibits bacterial growth was defined as MIC.

The test system of the next assay is E. coli ATCC BAA-2523. Described as above. It is filed as cell-based. The conditions noted are these: Escherichia coli, ATCCBAA2523. The protocol: as §1
A further assay has as its system E. coli ATCC 25922. The description is as above. Format: cell-based. To be noted: Escherichia coli, ATCC25922. On the procedure:
as §1

≈ marks a conversion by molar mass, not a printed value.

The MIC is the lowest concentration found to suppress growth. Higher therefore signals weaker potency.

For `CN[C@@H]1[C@@H](O)[C@@H](O[C@@H]2[C@@H](O)[C@H](O[C@H]3OC(CNCCOCCONC(=N)N)=CC[C@H]3N)[C@@H](N)C[C@H]2NC(=O)[C@@H](O)CCN)OC[C@]1(C)O` [Compound 1], in assay [1] (10 mpk and 30 mpk subcutaneously 2 h and 10 h after infection), the “in vivo activity in lung infection model (bacteria in lung tissue)” value is reported as “good in vivo activity”. The “efficacy at a dose of 10 mpk in lung infection model” value in assay [1] (10 mpk subcutaneously 2 h and 10 h after infection) was “equivalent to that of Plazomicin at a dose of 30 mpk”. Besides, the “efficacy compared with Plazomicin in lung infection model” value in assay [1] (subcutaneously 2 h and 10 h after infection) is listed as “better than that of Plazomicin”. Further, the “in vivo efficacy (bacteria loaded in thigh muscle tissue), compared with Plazomicin” value in assay [2] is “better in vivo efficacy than Plazomicin”. In addition, the MIC in assay [3] amounted to 4 µM (≈ 2.78 µg/mL); in the assay on E. coli ATCC BAA-2523, 2 µM (≈ 1.39 µg/mL); against E. coli ATCC 25922 it was 2 µM (≈ 1.39 µg/mL).
